According to the supplement of paper PMC11061612:

Columns and labels:
Assay in all cases: combination Emax (second highest fraction inhibited in the dose matrix, 72 h); higher = more inhibition; extreme values may be limits of the assay
[1] = system: UMC-11 (Other Solid Carcinomas)
Method in brief: (§1)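 Cell lines grown in DMEM/F12 or RPMI with 10% FBS were plated in 1536-well plates and held 24 hours at 37°C, 5% CO2 before 72 hours of exposure to two-drug dose matrices, with DMSO typically at 0.2%. CellTiter-Glo 2.0 luminescence gave viability, which was converted to inhibition. Vehicle wells were set to 0 and blank wells to 1. Combination Emax is the second-highest inhibition in the matrix, and Bliss excess is the observed combination effect minus the expected EA + EB − EA·EB, where EA and EB are the single-agent effects.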

[2] = system: MDA-MB-468 (Breast Carcinoma)
Method in brief: as §1

[3] = system: EN (Endometrial Carcinoma)
Method in brief: as §1

[4] = system: SH-4 (Melanoma)
Method in brief: as §1

[5] = system: HCC-15 (Squamous Cell Lung Carcinoma)
Method in brief: as §1

[6] = system: Hs-633T (Other Solid Carcinomas)
Method in brief: as §1

[7] = system: HMV-II (Melanoma)
Method in brief: as §1

[8] = system: NCI-H2795 (Mesothelioma)
Method in brief: as §1

[9] = system: SU-DHL-6 (B-Cell Non-Hodgkin's Lymphoma)
Method in brief: as §1

[10] = system: HO-1-u-1 (Oral Cavity Carcinoma)
Method in brief: as §1

[11] = system: CAL-51 (Breast Carcinoma)
Method in brief: as §1

[12] = system: KYSE-410 (Esophageal Squamous Cell Carcinoma)
Method in brief: as §1

[13] = system: COLO-829 (Melanoma)
Method in brief: as §1

[14] = system: SUP-T1 (T-Lymphoblastic Leukemia)
Method in brief: as §1

[15] = system: PCI-30 (Head and Neck Carcinoma)
Method in brief: as §1

[16] = system: LoVo (Colorectal Carcinoma)
Method in brief: as §1

[17] = system: RT-112 (Bladder Carcinoma)
Method in brief: as §1

[18] = system: TE-4 (Esophageal Squamous Cell Carcinoma)
Method in brief: as §1

[19] = system: NCI-H2461 (Mesothelioma)
Method in brief: as §1

[20] = system: NCI-H28 (Mesothelioma)
Method in brief: as §1

Compound | combination Emax [1] | combination Emax [2] | combination Emax [3] | combination Emax [4] | combination Emax [5] | combination Emax [6] | combination Emax [7] | combination Emax [8] | combination Emax [9] | combination Emax [10] | combination Emax [11] | combination Emax [12] | combination Emax [13] | combination Emax [14] | combination Emax [15] | combination Emax [16] | combination Emax [17] | combination Emax [18] | combination Emax [19] | combination Emax [20]
NC1(C(=O)N[C@@H](CCO)c2ccc(Cl)cc2)CCN(c2ncnc3[nH]ccc23)CC1 [Capivasertib] + CC(=O)c1c(C)c2cnc(Nc3ccc(N4CCNCC4)cn3)nc2n(C2CCCC2)c1=O [Palbociclib] (first compound max 10 µM, 7x7, partner max 10 µM) | 0.553 | 0.508 | 0.546 | 0.427 | 0.633 | 0.707 | 0.524 | 0.489 | 1 | 0.806 | 0.55 | 0.549 | 0.356 | 0.677 | 0.291 | 0.722 | 0.415 | 0.826 | 0.467 | 0.425
COc1cc2c(cc1OCCCCCOc1cc3c(cc1OC)C(=O)N1C=C(C)C[C@H]1C=N3)N=C[C@@H]1CC(C)=CN1C2=O [SG3199] + O=C(c1cc(Cc2n[nH]c(=O)c3ccccc23)ccc1F)N1CCN(C(=O)C2CC2)CC1 [Olaparib] (first compound max 0.001 µM, 7x7, partner max 10 µM) | 0.168 | 0.231 | 0.148 | 0.181 | 0.145 | 0.142 | 0.118 | 0.269 | 0.171 | 0.15 | 0.202 | 0.136 | 0.129 | 0.442 | 0.105 | 0.14 | 0.1 | 0.233 | 0.11 | 0.0051
Cc1c2c(nn1C)CSCc1cc(n(C)n1)CSc1cc(c3ccccc3c1)OCCCc1c(C(=O)O)n(C)c3c-2c(Cl)ccc13 [AZD5991] + CCN(CCO)CCCOc1ccc2c(Nc3cc(CC(=O)Nc4cccc(F)c4)[nH]n3)ncnc2c1 [AZD2811] (first compound max 1 µM, 7x7, partner max 1 µM) | 0.949 | 0.738 | 0.866 | 0.336 | 0.783 | 0.421 | 0.4 | 0.762 | 1 | 0.657 | 0.66 | 0.265 | 0.269 | 0.419 | 0.284 | 0.314 | 0.986 | 0.575 | 0.335 | 0.342
Cc1cc2ncnn2cc1Nc1ncc2c(n1)n(C1CCOCC1)c(=O)n2C [AZD7648] + CN(C)CCCOc1ccc(-c2ccc3ncc4c(c3c2)n(C2CCOCC2)c(=O)n4C)cn1 [AZD0156] (first compound max 10 µM, 7x7, partner max 1 µM) | 0.21 | 0.353 | 0.35 | 0.291 | 0.227 | 0.37 | 0.342 | 0.469 | 0.621 | 0.39 | 0.274 | 0.178 | 0.129 | 0.482 | 0.234 | 0.483 | 0.317 | 0.147 | 0.448 | 0.307
C=CCn1c(=O)c2cnc(Nc3ccc(N4CCN(C)CC4)cc3)nc2n1-c1cccc(C(C)(C)O)n1 [AZD1775] + O=C(c1cc(Cc2n[nH]c(=O)c3ccccc23)ccc1F)N1CCN(C(=O)C2CC2)CC1 [Olaparib] (first compound max 1 µM, partner max 10 µM) | 0.438 | 0.484 | 0.531 | 0.492 | 0.31 | 0.657 | 0.401 | 0.57 | 0.85 | 0.644 | 0.811 | 0.251 | 0.174 | 0.879 | 0.374 | 0.781 | 0.705 | 0.366 | 0.649 | 0.421
CN(CCO)CC[C@H](CSc1ccccc1)Nc1ccc(S(=O)(=O)NC(=O)c2ccc(N3CCC([C@@H](O)c4ccccc4-c4ccc(Cl)cc4)CC3)cc2)cc1S(=O)(=O)C(F)(F)F [AZD4320] + C[C@@H]1COCCN1C2=NC(=NC(=C2)C3(CC3)[S@](=N)(=O)C)C4=C5C=CNC5=NC=C4 [AZD6738] (first compound max 1 µM, 7x7, partner max 10 µM) | 0.806 | 0.842 | 0.69 | 0.409 | 0.94 | 0.946 | 0.331 | 0.844 | 0.951 | 0.926 | 0.919 | 0.421 | 0.213 | 0.858 | 0.653 | 0.838 | 0.863 | 0.691 | 0.838 | 0.668
COc1cccc(OCCCN)c1-c1cc(Nc2cnc(C#N)cn2)n[nH]1 [Prexasertib] + CN(C)CCCOc1ccc(-c2ccc3ncc4c(c3c2)n(C2CCOCC2)c(=O)n4C)cn1 [AZD0156] (first compound max 1 µM, 7x7, partner max 1 µM) | 0.902 | 0.492 | 0.762 | 0.807 | 0.187 | 0.908 | 0.517 | 0.789 | 0.642 | 0.975 | 0.946 | 0.483 | 0.385 | 0.821 | 0.813 | 0.896 | 0.975 | 0.65 | 0.745 | 0.626
Cc1c2c(nn1C)CSCc1cc(n(C)n1)CSc1cc(c3ccccc3c1)OCCCc1c(C(=O)O)n(C)c3c-2c(Cl)ccc13 [AZD5991] + C1CN(CCC1(C(=O)N[C@@H](CCO)C2=CC=C(C=C2)Cl)N)C3=NC=NC4=C3C=CN4 [Capivasertib] (first compound max 1 µM, 7x7, partner max 3 µM) | 0.29 | 0.585 | 0.848 | 0.332 | 0.227 | 0.216 | 0.198 | 0.85 | 1 | 0.837 | 0.792 | 0.174 | 0.222 | 0.503 | 0.237 | 0.625 | 0.858 | 0.81 | 0.464 | –
Cn1cnc2c(F)c(Nc3ccc(Br)cc3Cl)c(C(=O)NOCCO)cc21 [Selumetinib] + CCN(CCO)CCCOc1ccc2c(Nc3cc(CC(=O)Nc4cccc(F)c4)[nH]n3)ncnc2c1 [AZD2811] (first compound max 10 µM, 7x7, partner max 1 µM) | 0.818 | – | 0.569 | 0.906 | 0.799 | 0.486 | 0.717 | 0.858 | 0.385 | 0.328 | 0.479 | 0.256 | 0.506 | 0.413 | 0.233 | 0.445 | 0.456 | 0.422 | 0.397 | 0.352
COc1nnc2ccc(N3CCC(c4ccc(OCCN5CCN(C)C(=O)[C@H]5C)cc4)CC3)nn12 [AZD5153] + CC1(C)CCC(CN2CCN(c3ccc(C(=O)NS(=O)(=O)c4ccc(NCC5CCOCC5)c([N+](=O)[O-])c4)c(Oc4cnc5[nH]ccc5c4)c3)CC2)=C(c2ccc(Cl)cc2)C1 [Venetoclax] (first compound max 1 µM, 7x7, partner max 1 µM) | 0.769 | – | 0.289 | 0.607 | 0.329 | 0.564 | 0.524 | 0.465 | 1 | 0.55 | 0.673 | 0.266 | 0.226 | 0.745 | 0.344 | 0.464 | 0.239 | 0.27 | 0.517 | 0.487
COc1nnc2ccc(N3CCC(c4ccc(OCCN5CCN(C)C(=O)[C@H]5C)cc4)CC3)nn12 [AZD5153] + CCN(CCO)CCCOc1ccc2c(Nc3cc(CC(=O)Nc4cccc(F)c4)[nH]n3)ncnc2c1 [AZD2811] (first compound max 1 µM, 7x7, partner max 1 µM) | 0.843 | – | 0.454 | 0.613 | 0.74 | 0.746 | 0.588 | 0.497 | 0.903 | 0.578 | 0.807 | 0.313 | 0.3 | 0.786 | 0.41 | 0.627 | 0.357 | 0.467 | 0.592 | 0.518
COc1nnc2ccc(N3CCC(c4ccc(OCCN5CCN(C)C(=O)[C@H]5C)cc4)CC3)nn12 [AZD5153] + Cn1cnc2c(F)c(Nc3ccc(Br)cc3Cl)c(C(=O)NOCCO)cc21 [Selumetinib] (first compound max 1 µM, 7x7, partner max 10 µM) | 0.704 | – | 0.289 | 0.953 | 0.693 | 0.748 | 0.927 | 0.853 | 0.913 | 0.558 | 0.712 | 0.345 | 0.663 | 0.718 | 0.368 | 0.862 | 0.436 | 0.871 | 0.501 | 0.502
C[C@@H]1COCCN1c1cc(C2([S@](C)(=N)=O)CC2)nc(-c2ccnc3[nH]ccc23)n1 [AZD6738] + O=C(c1cc(Cc2n[nH]c(=O)c3ccccc23)ccc1F)N1CCN(C(=O)C2CC2)CC1 [Olaparib] (first compound max 10 µM, 7x7, partner max 10 µM) | 0.561 | – | 0.535 | 0.419 | 0.258 | 0.821 | 0.374 | 0.745 | 0.621 | 0.793 | 0.926 | 0.239 | 0.194 | 0.767 | 0.538 | 0.772 | 0.614 | 0.527 | 0.703 | 0.408
